B1: E. coli SelO (ydiU) C272A mutant (enzyme, UniProt P77649 1-478, looked up)
chain: MTLSFVTRWRDELPETYTALSPTPLNNARLIWHNTELANTLSIPSSLFKNGAGVWGGEALLPGMSPLAQVYSGHQFGVWAGQLGDGRGILLGEQLLADGTTMDWHLKGAGLTPYSRMGDGRAVLRSTIRESLASEAMHYLGIPTTRALSIVTSDSPVYRETAEPGAMLMRVAPSHLRFGHFEHFYYRRESEKVRQLADFAIRHYWSHLADDEDKYRLWFSDVVARTASLIAQWQTVGFAHGVMNTDNMSLLGLTLDYGPFGFLDDYEPGFIANHSDHQGRYSFDNQPAVALWNLQRLAQTLSPFVAVDALNEALDSYQQVLLTHYGERMRQKLGFMTEQKEDNALLNELFSLMARERSDYTRTFRMLSLTEQHSAASPLRDEFIDRAAFDDWFARYRGRLQQDEVSDSERQQLMQSVNPALVLRNWLAQRAIEAAEKGDMTELHRLHEALRNPFSDRDDDYVSRPPDWGKRLEVSCSS
modifications: intermolecular disulfide between the two copies (cysteine not named)

What was measured:
P. syringae SelO = P. syringae SelO (Pseudomonas syringae group genomosp. 3, UniProt Q87VB1); assay: X-ray crystal structure, […] Å; assay type: binding; conditions: active site, nucleotide flipped; Mg2+ and Ca2+ bound; pH 8; 20 °C
non-reducing SDS-PAGE = target: the molecule itself; assay: non-reducing SDS-PAGE

Chain of P. syringae SelO (Q87VB1 whole entry): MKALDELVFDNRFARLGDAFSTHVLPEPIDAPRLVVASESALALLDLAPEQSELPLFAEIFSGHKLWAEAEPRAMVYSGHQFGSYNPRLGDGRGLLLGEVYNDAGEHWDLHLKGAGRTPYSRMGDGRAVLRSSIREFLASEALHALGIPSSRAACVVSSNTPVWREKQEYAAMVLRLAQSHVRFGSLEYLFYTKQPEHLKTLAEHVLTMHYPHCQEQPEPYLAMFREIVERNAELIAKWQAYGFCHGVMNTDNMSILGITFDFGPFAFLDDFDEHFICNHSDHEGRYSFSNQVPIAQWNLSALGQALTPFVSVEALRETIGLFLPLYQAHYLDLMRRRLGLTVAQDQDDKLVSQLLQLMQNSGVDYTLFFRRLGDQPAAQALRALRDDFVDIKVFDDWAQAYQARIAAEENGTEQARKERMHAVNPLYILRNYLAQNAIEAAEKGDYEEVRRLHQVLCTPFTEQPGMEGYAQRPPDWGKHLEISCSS

Row | Molecule | X-ray crystal structure, 2.27 Å (P. syringae SelO) | stoichiometry N (non-reducing SDS-PAGE)
1 | Nc1ncnc2c1ncn2[C@@H]1O[C@H](COP(=O)(O)OP(=O)(O)NP(=O)(O)O)[C@@H](O)[C@H]1O [AMP-PNP] | bound to an ATP derivative AMP-PNP | 
2 | B1 |  | 2

Reference: article PMC6524645 (Cell, 2018)
